The text below walks through data of ChEMBL document CHEMBL1139451, “The discovery of ezetimibe: a view from outside the receptor” (2004).

Activity calls are given as the source filed them. The calls are words filed in the database; no cut-off is given here.

The term ED50 denotes the midpoint of the dose-response relation.

The test system of experiment [1] is Cricetinae gen. sp. Nature of the experiment: Compound was tested for the change in liver cholesterol (CE) levels in hamster. It counts as functional, Cricetulus griseus.
The test system of experiment [2] is Cricetinae gen. sp. In words: Compound was tested for the change in liver cholesterol (CE) levels in hamsters. It is filed as functional, Cricetulus griseus.
Experiment [3] addresses T1, Sterol O-acyltransferase 1 (Cricetulus griseus) (UniProt Q60457).
T1 sequence (whole entry): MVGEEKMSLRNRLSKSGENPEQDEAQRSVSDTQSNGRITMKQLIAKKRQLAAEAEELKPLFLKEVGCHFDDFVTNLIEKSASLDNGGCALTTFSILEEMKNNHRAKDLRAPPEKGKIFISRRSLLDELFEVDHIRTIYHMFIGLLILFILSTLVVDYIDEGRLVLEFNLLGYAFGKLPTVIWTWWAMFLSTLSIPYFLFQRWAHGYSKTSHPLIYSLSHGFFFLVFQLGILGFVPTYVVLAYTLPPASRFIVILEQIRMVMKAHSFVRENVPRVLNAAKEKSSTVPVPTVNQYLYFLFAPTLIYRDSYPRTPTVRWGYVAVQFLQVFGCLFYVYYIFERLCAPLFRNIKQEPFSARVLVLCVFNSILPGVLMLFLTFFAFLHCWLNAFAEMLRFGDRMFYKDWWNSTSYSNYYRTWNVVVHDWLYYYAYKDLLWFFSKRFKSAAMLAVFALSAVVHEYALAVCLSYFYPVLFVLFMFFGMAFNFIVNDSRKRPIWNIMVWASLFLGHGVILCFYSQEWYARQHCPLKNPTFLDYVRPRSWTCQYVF
Nature of the experiment: Compound was tested for the change in serum cholesterol (SC) levels by the inhibition of ACAT in hamster at 50 mg/kg p.o.; NE=No effect. It is filed as functional, organism-based. Also on record: dose 50 mg/kg.

Experiment [4] has as its target T1, Sterol O-acyltransferase 1 (Cricetulus griseus). In words: Compound was tested for the change in liver cholesteryl ester (CE) levels by the inhibition of ACAT in hamster at 50 mg/kg p.o.; NE=No effect. It is filed as functional, organism-based. Also noted: dose 50 mg/kg.
Experiment [5] shares this target. Nature of the experiment: Compound was tested for the change in serum cholesterol (SC) levels by the inhibition of ACAT in hamster at 50 mg/kg p.o. It counts as functional, organism-based. Also noted: dose 50 mg/kg.
For experiment [6] the target is unchanged. In words: Compound was tested for the change in liver cholesteryl ester (CE) levels by the inhibition of ACAT in hamster at 50 mg/kg p.o. It is filed as functional, organism-based. Also on record: dose 50 mg/kg.
Experiment [7] is filed under the species Homo sapiens. Nature of the experiment: Compound was tested for the reduction in low density lipoprotein cholesterol. It counts as functional.
The species entered for experiment [8] is Homo sapiens. Nature of the experiment: Compound was tested for the reduction in triglycerides. It counts as functional.
The species entered for a further experiment is Canis familiaris. In words: Compound was tested for the change in serum cholesterol (SC) levels in cholesterol fed dog. It is filed as functional. The note with it: Canis lupus familiaris.
The test system of another experiment is Monkey. In words: Compound was tested for the change in serum cholesterol (SC) levels in cholesterol fed monkey. It counts as functional. Particulars: Cercopithecidae, in Primates.
For experiment [9], the species on record is Homo sapiens. Nature of the experiment: Compound was tested for the reduction in high density lipoprotein cholesterol. It is filed as functional.
Experiment [10] is filed under the species Homo sapiens. Nature of the experiment: Compound was tested for the reduction in total cholesterol. It counts as functional.
The species named for the next experiment is Rattus norvegicus. In words: Compound was tested for the change in serum cholesterol (SC) level in cholesterol fed rat. It is filed as functional.

In turn, `CC(=O)c1ccc([C@@H]2[C@@H](CCC(=O)c3ccccc3)C(=O)N2c2ccc(C(C)=O)cc2)cc1` showed an ED50 in the experiment with Cricetinae gen. sp. [1] of 1.9 mg/kg. Same read-out and setting: the same measure for `O=Cc1ccc([C@@H]2[C@@H](CC[C@@H](O)c3ccccc3)C(=O)N2c2ccc(C=O)cc2)cc1`: 5 mg/kg. `O=Cc1ccc([C@@H]2[C@@H](CC[C@H](O)c3ccccc3)C(=O)N2c2ccc(C=O)cc2)cc1`: it took a dose of 0.9 mg/kg to reach the 50% effect level in the experiment with Cricetinae gen. sp. [2] (ED50).

As to `COc1ccc([C@@H]2[C@@H](/C=C/Cc3ccccc3)C(=O)N2c2ccc(OC)cc2)cc1`, the Change in cholesterol entry in experiment [3] and in [4] was “inactive” throughout.

On to `COc1ccc([C@@H]2[C@@H](/C=C\Cc3ccccc3)C(=O)N2c2ccc(OC)cc2)cc1`, for which the Change in cholesterol in experiment [5] is -20%; in [6] it was -73%. Take `O=C1[C@H](CCCc2ccccc2)[C@@H](c2ccc(O)cc2)N1c1ccc(O)cc1`: the Change in cholesterol in experiment [6] was -78%. Same read-out and setting: the same measure for `O=Cc1ccc([C@@H]2[C@@H](CCCc3ccc(O)cc3)C(=O)N2c2ccc(C=O)cc2)cc1`: -78%; for `O=Cc1ccc([C@@H]2[C@@H](CCCc3ccccc3)C(=O)N2c2ccc(O)cc2)cc1`: -68%. Turning to `COc1ccc([C@@H]2N(c3ccccc3)C(=O)C23CCC(c2ccc(Cl)cc2)CC3)cc1` (stereo in doubt; 17) [listing 1 of 2 here], the ED50 with Cricetinae gen. sp. [2] came out at 0.66 mg/kg. Turning to `COc1ccc([C@@H]2N(c3ccccc3)C(=O)C23CCC(c2ccc(Cl)cc2)CC3)cc1` (stereo in doubt; 17) [listing 2 of 2 here], the figures for the Change in cholesterol in [5] and in experiment [6] were -46% and -97%, respectively. The corresponding values for `COc1ccc([C@@H]2N(c3ccccc3)C(=O)C23CCC(c2ccc(Cl)cc2)CC3)cc1` (stereo in doubt; 18) are “No effect” and “No effect”. As for `O=C1[C@H](CC[C@H](O)c2ccc(F)cc2)[C@@H](c2ccc(O)cc2)N1c1ccc(F)cc1` [EZETIMIBE], the Mean is recorded as -16.9% in the experiment listed under Homo sapiens [7], -5.7% in the experiment listed under Homo sapiens [8], 1.3% in the experiment listed under Homo sapiens [9] and -12.5% in the experiment listed under Homo sapiens [10]. Besides, the ED50 in the experiment filed under Canis familiaris came out at 0.007 mg/kg; in the experiment on Monkey, 0.0005 mg/kg; in the experiment on Cricetinae gen. sp. [1] it was 0.04 mg/kg; in the experiment listed under Rattus norvegicus, 0.03 mg/kg.
